Columns and labels:
hNav1.5 Late Current = hNav1.5 Late Current (Homo sapiens (Human), UniProt Q14524); experiment: hNav1.5 Late Current Sodium Channel Assay, Qube APC; type: cell-based; conditions: Nav1.5 Late Current, Antagonist mode, test compound
Method: (§1) Electrophysiological assays were conducted to profile three compounds ((R)-methylone, (S)-methylone, or racemic methylone) for activities on the ion channel targets specified below using the Qube electrophysiological platform. Where presented, IC50 values were determined by a non-linear, least squares regression analysis. Reference standards were run as an integral part of each assay to ensure the validity of the results obtained.
(§2) Ion Channels tested were Eurofins Panel Part Number: CPROFullQB2DR Voltage-Gated Sodium: HEK-Nav1.5 (Peak), HEK-Nav1.5 (Late, Antagonist) Voltage-Gated Potassium: HEK-Kv4.3/KChIP2, CHO-hERG, CHO-KCNQ1/minK Voltage-Gated Calcium: HEK-Cav1.2 Inward-Rectifying Voltage-Gated Potassium: HEK-Kir2.1.
(§3) hNav1.5 Late Current Sodium Channel Assay—Qube APC Onset and steady state block of Late Nav1.5 current is measured using a pulse pattern, repeated every 5 sec, consisting of a hyperpolarizing pulse to −120 mV for a 200 ms duration, depolarization to −15 mV amplitude for a 40 ms duration, followed by step to 40 mV for 200 ms and finally a 100 ms ramp (1.2 V/s) to a holding potential of −80 mV. Late current is measured as charge current elicited during the ramp with 50 nM ATXII.

NET [1] = experiment: NE release study; type: biochemical
hNav1.5 = hNav1.5 (Homo sapiens (Human), UniProt Q14524); experiment: hNav1.5 Sodium Channel Assay (peak), Qube APC; type: cell-based; conditions: Nav1.5, Antagonist mode, test compound
Method: (§4) Where presented, IC50 values were determined by a non-linear, least squares regression analysis.
(§5) Recombinant HEK-293 cells stably transfected with human Nav1.5 cDNA, recombinant HEK293 cell line expressing the human Cav1.2 (L-type voltage gated calcium channel, hCav1.2 α1C/β2a/α2δ1, and recombinant CHO-K1 cells stably transfected with human hERG cDNA were used separately in each of these assays.
as §3, with “hNav1.5” for “hNav1.5 Late Current”, “of peak” for “of Late”, “mV. Peak” for “mV. Late”, “measured” for “measured as charge current elicited”, “the step to −15 mV.” for “the ramp with 50 nM ATXII.”

hKCNQ1/hminK = hKCNQ1/hminK (Homo sapiens (Human), UniProt P51787); experiment: hKCNQ1/hminK Potassium Channel Assay, Qube APC; type: cell-based; conditions: KCNQ1/mink, Antagonist mode, test compound
Method: as §1, §2
hKCNQ1/hminK Potassium Channel Assay—Qube APC After whole cell configuration is achieved, the cells are held at −80 mV. KCNQ1/minK currents are evoked by a 1000 ms pulse from −80 mV to 60 mV followed by a ramp from 60 mV to −80 mV over 115 ms with the outward peak currents measured upon depolarization of the cell membrane. This paradigm is delivered once every 15 s to monitor the current amplitude.

hKv4.3/hKChIP2 = hKv4.3/hKChIP2 (Homo sapiens (Human), UniProt Q9UK17); experiment: hKv4.3/hKChIP2 Potassium Channel Assay, Qube APC; type: cell-based; conditions: Kc4.3/ChIP2, Antagonist mode, test compound
Method: as §1, §2
hKv4.3/hKChIP2 Potassium Channel Assay—Qube APC After whole cell configuration is achieved, the cells are held at −80 mV. Onset and steady state block of hKv4.3 current is measured using a pulse pattern from −80 mV to 40 mV amplitude for a 110 ms duration, and finally a 100 ms ramp (1.2 V/s) to −80 mV. This paradigm is delivered once every 5 s to monitor the current amplitude.

hKir2.1 = hKir2.1 (Homo sapiens (Human), UniProt P63252); type: cell-based; conditions: Kir2.1, Antagonist mode, test compound
Method: as §1, §2
hKir2.1 Potassium Channel Assay—Qube APC After whole cell configuration is achieved, the cells are held at −30 mV. Kir2.1 currents are evoked by a single 500 ms pulse to −120 mV before returning to the holding potential of −30 mV. This paradigm is delivered once every 20 s to monitor the current amplitude.

NET [2] = experiment: [3H]Norepinephrine uptake inhibition in rat brain synaptosomes; type: biochemical; conditions: NE
Method: (§6) Materials used were: Neurotransmitters [3H]5-HT (PerkinElmer, NET498001MC) [^3H]Dopamine (PerkinElmer, NET673250UC) [^3H]Norepinephrine (PerkinElmer, NET377250UC); Test Compounds Racemic methylone HCl (Merck, M-140); (R)-methylone HCl (Pisgah Labs); (S)-methylone HCl (Pisgah Labs); Reference Compounds Citalopram (Tocris Bioscience 1427). JHW007 (Tocris Bioscience 4351). Nomifensine (Abcam ab146004).
(§7) Synaptosomes were prepared from Sprague Dawley (200-250 g) rat brain regions (hippocampus for NE, striatum for DA and midbrain for 5-HT) using standard protocols. Tissues were dissected, added to sucrose buffer (0.32 M), homogenized with a dounce-homogenizer and centrifuged at 100×g to remove cells and debris. Supernatant was collected and centrifuged 17,000×g for 10 minutes at 4° C. to pellet the synaptosomes. The pellet was resuspended in fresh assay buffer.
(§8) Uptake assays were carried out in 96-well plates in a final volume of 250 μL per well. To each well was added 150 μL synaptosomes, 50 μL test, non-specific compound or buffer alone. The plate was incubated at 30° C. for 30 minutes with gentle agitation. 50 μL radiolabeled neurotransmitter in buffer was then added to each well to initiate the uptake. The plate was incubated at 30° C. for a further 5 minutes with gentle agitation. The incubation was stopped by vacuum filtration onto presoaked GF/C filters using a 96-well FilterMate™ harvester, followed by 3 washes with ice-cold wash buffer. Filters were then dried under a warm air stream, sealed in polyethylene, scintillation cocktail added, and the radioactivity counted in a Wallac® TriLux 1450 MicroBeta counter.
(§9) For each concentration of drug, non-specific uptake was subtracted from total uptake to give specific uptake. Data was fitted using the non-linear curve fitting routines in Prism® (Graphpad Software Inc) to determine IC50.

hCav1.2 = hCav1.2 (Homo sapiens (Human), UniProt Q13936); experiment: hCav1.2 (L-type) Calcium Channel Assay, Qube APC; type: cell-based; conditions: Cav1.2, Antagonist mode, test compound
Method: as §4, §5
hCav1.2 (L-type) Calcium Channel Assay—Qube APC After whole cell configuration is achieved, the cells are held at −90 mV. Cav1.2 currents are evoked by a 50 ms pulse to −100 mV followed by a 200 ms pulse to +20 mV before returning to the holding potential of −90 mV. This paradigm is delivered three times every 60 s to monitor the current amplitude.

SERT = SERT (Rattus norvegicus (Rat), UniProt P31652); experiment: [3H]5-HT uptake inhibition in rat brain synaptosomes; type: biochemical
Method: as §6, §7, §8, §9

Chain of hKir2.1 (P63252 whole entry): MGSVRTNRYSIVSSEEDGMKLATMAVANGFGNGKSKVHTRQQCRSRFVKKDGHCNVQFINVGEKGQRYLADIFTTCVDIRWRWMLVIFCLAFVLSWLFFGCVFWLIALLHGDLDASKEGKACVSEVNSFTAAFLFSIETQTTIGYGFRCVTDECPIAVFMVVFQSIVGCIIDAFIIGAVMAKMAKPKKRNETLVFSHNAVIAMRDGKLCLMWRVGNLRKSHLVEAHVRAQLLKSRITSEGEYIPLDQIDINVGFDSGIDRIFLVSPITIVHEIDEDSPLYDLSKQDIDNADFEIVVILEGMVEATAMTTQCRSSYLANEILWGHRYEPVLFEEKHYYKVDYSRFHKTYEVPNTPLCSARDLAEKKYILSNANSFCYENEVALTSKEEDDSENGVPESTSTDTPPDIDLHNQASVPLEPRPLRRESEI
Chain of hKv4.3/hKChIP2 (Q9UK17 whole entry, looked up): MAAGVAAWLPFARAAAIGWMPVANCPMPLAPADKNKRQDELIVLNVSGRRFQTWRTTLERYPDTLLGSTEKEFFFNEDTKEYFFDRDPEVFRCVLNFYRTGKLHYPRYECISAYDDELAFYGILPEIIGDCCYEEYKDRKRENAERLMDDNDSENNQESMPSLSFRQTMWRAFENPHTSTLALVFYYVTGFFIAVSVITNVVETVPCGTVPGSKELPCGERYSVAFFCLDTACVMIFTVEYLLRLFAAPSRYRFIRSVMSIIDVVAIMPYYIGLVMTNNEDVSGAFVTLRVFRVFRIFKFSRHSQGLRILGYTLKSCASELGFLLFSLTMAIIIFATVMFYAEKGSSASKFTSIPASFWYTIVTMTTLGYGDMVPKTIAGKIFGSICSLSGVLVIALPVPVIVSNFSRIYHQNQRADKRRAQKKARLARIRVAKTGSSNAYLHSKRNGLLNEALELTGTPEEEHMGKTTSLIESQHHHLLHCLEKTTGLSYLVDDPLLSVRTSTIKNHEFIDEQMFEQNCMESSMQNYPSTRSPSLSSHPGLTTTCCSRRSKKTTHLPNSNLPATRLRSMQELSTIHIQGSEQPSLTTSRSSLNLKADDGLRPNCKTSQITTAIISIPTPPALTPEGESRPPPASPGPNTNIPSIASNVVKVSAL
Chain of hKv4.3/hKChIP2 (Q9NS61 whole entry partner, looked up): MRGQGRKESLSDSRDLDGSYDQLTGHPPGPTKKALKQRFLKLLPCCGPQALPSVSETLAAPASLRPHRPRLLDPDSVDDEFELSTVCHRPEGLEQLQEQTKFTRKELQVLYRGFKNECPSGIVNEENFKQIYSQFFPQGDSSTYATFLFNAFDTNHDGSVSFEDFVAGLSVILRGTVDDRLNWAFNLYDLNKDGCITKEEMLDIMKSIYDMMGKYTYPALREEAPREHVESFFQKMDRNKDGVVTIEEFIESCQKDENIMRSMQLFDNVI

With CN[C@@H](C)C(=O)c1ccc2c(c1)OCO2 [(S)-methylone] the “Estimated IC50” value (hNav1.5 Late Current) was “N/C (N/C indicates observed mean inhibition was <25%)”, the EC50 (NET [1]) was 760 nM and the “Estimated IC50” value (hNav1.5) was “N/C (N/C indicates observed mean inhibition was <25%)”. For the same compound, the “Estimated IC50” value (hKCNQ1/hminK) was “N/C (N/C indicates observed mean inhibition was <25%)”, the “Estimated IC50” value (hKv4.3/hKChIP2) was “N/C (N/C indicates observed mean inhibition was <25%)” and the “Estimated IC50” value (hKir2.1) was “N/C (N/C indicates observed mean inhibition was <25%)”. The IC50 (NET [2]) was 316 nM, the “Estimated IC50” value (hCav1.2) was “N/C (N/C indicates observed mean inhibition was <25%)” and the IC50 (SERT) was 0.395 µM.

For CN[C@H](C)C(=O)c1ccc2c(c1)OCO2 [(R)-methylone], the “Estimated IC50” value (hNav1.5 Late Current) was “N/C (N/C indicates observed mean inhibition was <25%)”, the EC50 (NET [1]) was 191 nM and the “Estimated IC50” value (hNav1.5) was “N/C (N/C indicates observed mean inhibition was <25%)”. For the same compound, the “Estimated IC50” value (hKCNQ1/hminK) was “N/C (N/C indicates observed mean inhibition was <25%)”, the “Estimated IC50” value (hKv4.3/hKChIP2) was “N/C (N/C indicates observed mean inhibition was <25%)” and the “Estimated IC50” value (hKir2.1) was “N/C (N/C indicates observed mean inhibition was <25%)”. For the same compound, the IC50 (NET [2]) was 242 nM, the “Estimated IC50” value (hCav1.2) was “N/C (N/C indicates observed mean inhibition was <25%)” and the IC50 (SERT) was 7.62 µM.

Source: patent US20240327372A1, “PREPARATION OF PHENE[…] […] STEREOISOMERS THEREOF AND PRECURSORS THEREOF” (priority 2022, published 2024)
